Here are results for five molecules from publication doi:10.1101/2023.03.24.534094v2 (biorxiv, 2023).

Targets include CLK1 (Homo sapiens, UniProt P49759); PIM1 (Homo sapiens, UniProt P11309); JNK2 (Homo sapiens, UniProt P45984); GPRK5 (Homo sapiens, UniProt P34947).
Test in all cases: biochemical
The target of the next experiment is T1, PHKG2 (Homo sapiens, UniProt P15735).
T1 sequence (P15735 1-406): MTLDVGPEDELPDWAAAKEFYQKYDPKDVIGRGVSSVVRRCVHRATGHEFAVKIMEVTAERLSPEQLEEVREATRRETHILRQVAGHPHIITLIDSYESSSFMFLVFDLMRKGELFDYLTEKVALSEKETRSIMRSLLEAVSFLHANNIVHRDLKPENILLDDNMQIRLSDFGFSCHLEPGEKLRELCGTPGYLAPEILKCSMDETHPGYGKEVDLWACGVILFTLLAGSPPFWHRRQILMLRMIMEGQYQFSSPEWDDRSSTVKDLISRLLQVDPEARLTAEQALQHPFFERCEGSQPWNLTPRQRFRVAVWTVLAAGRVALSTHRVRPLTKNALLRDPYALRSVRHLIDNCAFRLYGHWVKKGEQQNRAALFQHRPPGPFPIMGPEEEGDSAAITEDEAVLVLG

Another experiment concerns the target T2, MYT1 (Homo sapiens, UniProt Q99640).
T2 sequence (Q99640 1-499): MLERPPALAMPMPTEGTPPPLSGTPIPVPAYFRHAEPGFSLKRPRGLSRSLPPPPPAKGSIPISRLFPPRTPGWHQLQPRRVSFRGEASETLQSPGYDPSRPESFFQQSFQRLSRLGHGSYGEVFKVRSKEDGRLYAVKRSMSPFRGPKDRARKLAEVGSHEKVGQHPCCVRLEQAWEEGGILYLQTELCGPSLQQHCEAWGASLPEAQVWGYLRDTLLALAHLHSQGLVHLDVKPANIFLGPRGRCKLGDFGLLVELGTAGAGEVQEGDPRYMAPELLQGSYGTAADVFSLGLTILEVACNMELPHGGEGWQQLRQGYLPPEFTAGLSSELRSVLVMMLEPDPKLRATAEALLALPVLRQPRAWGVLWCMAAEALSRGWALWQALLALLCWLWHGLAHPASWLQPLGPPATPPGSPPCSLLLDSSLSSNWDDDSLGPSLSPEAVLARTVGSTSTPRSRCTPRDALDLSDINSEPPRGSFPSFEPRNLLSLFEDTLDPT

Another experiment deals with T3, DYRK2 (Homo sapiens, UniProt Q92630).
T3 sequence (Q92630 1-601): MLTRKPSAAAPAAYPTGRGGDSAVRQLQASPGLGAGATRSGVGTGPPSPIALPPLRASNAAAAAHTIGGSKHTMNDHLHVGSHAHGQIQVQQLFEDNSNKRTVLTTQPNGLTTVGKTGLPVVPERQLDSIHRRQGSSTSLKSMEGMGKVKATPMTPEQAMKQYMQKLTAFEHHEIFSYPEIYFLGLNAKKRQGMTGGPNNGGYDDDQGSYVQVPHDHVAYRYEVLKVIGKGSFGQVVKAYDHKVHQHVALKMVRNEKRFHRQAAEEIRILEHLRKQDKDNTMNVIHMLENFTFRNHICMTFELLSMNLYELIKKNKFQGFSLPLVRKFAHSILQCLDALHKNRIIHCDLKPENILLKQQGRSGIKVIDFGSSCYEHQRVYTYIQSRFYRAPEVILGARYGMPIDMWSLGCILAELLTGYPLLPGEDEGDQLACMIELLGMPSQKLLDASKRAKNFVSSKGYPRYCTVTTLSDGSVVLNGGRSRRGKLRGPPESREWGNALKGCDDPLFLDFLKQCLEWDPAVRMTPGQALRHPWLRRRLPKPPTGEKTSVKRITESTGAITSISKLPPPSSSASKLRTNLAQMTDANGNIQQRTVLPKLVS

The next experiment deals with T4, MER (Homo sapiens, UniProt Q12866).
T4 sequence (Q12866 1-999): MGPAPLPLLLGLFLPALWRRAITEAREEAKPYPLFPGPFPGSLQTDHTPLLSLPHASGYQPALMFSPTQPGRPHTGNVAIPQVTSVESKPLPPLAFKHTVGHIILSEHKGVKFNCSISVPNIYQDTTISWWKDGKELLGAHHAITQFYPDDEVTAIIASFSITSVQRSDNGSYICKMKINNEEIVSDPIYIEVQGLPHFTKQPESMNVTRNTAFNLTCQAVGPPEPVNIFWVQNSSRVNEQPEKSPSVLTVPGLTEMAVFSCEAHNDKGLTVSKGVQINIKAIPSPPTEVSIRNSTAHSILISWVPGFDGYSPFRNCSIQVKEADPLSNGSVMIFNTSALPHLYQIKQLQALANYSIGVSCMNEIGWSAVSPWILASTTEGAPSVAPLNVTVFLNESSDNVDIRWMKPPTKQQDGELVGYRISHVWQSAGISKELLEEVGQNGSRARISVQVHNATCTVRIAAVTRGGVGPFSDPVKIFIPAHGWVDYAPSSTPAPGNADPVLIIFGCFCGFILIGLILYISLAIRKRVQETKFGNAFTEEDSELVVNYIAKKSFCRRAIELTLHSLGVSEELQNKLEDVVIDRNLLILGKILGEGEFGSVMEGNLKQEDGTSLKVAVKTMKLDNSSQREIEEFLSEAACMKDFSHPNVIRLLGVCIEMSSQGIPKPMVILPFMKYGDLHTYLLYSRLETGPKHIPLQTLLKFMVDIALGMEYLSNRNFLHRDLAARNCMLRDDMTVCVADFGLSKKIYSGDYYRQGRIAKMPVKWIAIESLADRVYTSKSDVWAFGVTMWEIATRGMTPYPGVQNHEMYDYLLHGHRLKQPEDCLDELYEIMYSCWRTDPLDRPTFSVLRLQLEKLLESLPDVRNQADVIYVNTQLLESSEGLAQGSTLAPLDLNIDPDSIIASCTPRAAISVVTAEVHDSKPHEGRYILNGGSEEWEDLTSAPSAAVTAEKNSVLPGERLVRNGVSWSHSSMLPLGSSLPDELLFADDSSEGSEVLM

Read-outs that look alike come from different tables or passages of the source.

JNK2, sequence (P45984 whole entry): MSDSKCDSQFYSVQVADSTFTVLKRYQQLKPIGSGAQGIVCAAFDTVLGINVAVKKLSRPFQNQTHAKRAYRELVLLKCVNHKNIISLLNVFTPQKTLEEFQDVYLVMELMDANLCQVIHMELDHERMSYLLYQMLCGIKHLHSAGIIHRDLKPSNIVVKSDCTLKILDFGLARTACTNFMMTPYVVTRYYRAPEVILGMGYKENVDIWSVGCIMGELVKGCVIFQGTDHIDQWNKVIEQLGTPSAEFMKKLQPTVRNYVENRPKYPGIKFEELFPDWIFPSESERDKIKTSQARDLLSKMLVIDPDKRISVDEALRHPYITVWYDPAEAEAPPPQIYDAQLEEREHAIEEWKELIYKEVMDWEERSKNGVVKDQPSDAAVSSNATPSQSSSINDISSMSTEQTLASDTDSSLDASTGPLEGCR
GPRK5, sequence (P34947 whole entry): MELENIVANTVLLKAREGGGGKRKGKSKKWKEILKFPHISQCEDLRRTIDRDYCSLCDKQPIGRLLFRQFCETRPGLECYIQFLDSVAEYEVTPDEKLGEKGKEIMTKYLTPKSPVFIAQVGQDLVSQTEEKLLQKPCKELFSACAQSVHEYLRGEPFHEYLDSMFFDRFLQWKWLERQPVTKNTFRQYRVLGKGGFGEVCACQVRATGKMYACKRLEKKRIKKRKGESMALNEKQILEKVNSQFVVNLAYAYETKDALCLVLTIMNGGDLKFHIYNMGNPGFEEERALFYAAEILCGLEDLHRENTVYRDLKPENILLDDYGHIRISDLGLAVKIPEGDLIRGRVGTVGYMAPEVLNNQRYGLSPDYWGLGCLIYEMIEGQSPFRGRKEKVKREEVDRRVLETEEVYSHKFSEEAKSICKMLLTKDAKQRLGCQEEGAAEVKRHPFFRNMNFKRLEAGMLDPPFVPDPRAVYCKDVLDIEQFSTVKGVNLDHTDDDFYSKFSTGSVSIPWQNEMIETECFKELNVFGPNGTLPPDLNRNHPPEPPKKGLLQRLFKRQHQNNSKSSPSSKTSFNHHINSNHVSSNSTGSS
CLK1, sequence (P49759 whole entry): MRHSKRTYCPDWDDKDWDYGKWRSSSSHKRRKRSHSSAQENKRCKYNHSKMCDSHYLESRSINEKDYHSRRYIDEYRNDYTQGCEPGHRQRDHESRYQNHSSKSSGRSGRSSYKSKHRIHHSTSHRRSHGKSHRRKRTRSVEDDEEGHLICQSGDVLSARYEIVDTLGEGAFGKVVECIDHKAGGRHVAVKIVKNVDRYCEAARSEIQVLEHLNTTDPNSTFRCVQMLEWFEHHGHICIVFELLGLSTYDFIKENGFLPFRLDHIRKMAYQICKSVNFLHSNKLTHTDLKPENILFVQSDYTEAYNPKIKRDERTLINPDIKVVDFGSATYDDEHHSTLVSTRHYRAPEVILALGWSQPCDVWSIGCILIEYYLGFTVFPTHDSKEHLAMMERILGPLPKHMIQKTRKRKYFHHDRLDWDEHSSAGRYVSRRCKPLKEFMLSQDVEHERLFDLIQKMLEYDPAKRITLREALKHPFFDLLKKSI
PIM1, sequence (P11309 whole entry): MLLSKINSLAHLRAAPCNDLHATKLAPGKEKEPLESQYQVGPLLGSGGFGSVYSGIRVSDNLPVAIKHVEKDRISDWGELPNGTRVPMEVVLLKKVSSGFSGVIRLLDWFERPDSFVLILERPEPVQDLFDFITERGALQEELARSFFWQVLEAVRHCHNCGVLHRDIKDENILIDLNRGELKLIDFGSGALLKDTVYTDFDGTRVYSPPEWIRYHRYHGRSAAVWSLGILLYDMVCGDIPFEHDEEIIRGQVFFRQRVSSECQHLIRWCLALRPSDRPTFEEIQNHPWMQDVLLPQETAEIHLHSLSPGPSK

For the molecule `CNc1ncc2cc(-c3ccccc3Cl)c(=O)n(CCCCN)c2n1` [compound 4, 8-(4-Aminobutyl)-6-(2-chlorophenyl)-2-(methylamino)pyrido[2,3-d]pyrimidin-7(8H)-one], the ΔTm at 10 µM was 0.3 °C at PHKG2 (read-out: dTm MR21 (4)); -1.2 °C at CLK1 (read-out: dTm MR21 (4)); 0.4 °C at PIM1 (read-out: dTm MR21 (4)); -0.1 °C on JNK2 (read-out: dTm MR21 (4)); -2.3 °C on MYT1 (read-out: dTm MR21 (4)); -1.2 °C at GPRK5 (read-out: dTm MR21 (4)). The ΔTm at 10 µM on DYRK2 (read-out: dTm MR21 (4)) was 0 °C; at MER (read-out: dTm MR21 (4)), 2.8 °C.

For `CNc1ncc2cc(-c3cc(Br)ccc3Cl)c(=O)n(CCCCN)c2n1` [compound 6, 8-(4-Aminobutyl)-6-(5-bromo-2-chlorophenyl)-2-(methylamino)pyrido[2,3-d]pyrimidin-7(8H)-one], the ΔTm at 10 µM at PHKG2 (read-out: dTm 6) was 0.8 °C; at CLK1 (read-out: dTm 6), 0.2 °C; on PIM1 (read-out: dTm 6), 1.2 °C; at JNK2 (read-out: dTm 6) it was -0.4 °C; at MYT1 (read-out: dTm 6), -1.4 °C; on GPRK5 (read-out: dTm 6), 0 °C. Also, the ΔTm at 10 µM at DYRK2 (read-out: dTm 6) is -0.1 °C; on MER (read-out: dTm 6) it was 0.1 °C.

With `CNc1ncc2cc(-c3ccc(-c4cccc(C)n4)cc3Cl)c(=O)n(CC3OCC(N)CO3)c2n1` (stereo not shown) [compound 2, G-5555], the “dTm G-5555 (2)” value was 0.6 °C on PHKG2 (10 µM, binder); 0.1 °C at CLK1 (10 µM, binder); -1.6 °C at PIM1 (10 µM, binder); 0.6 °C on JNK2 (10 µM, binder); -2.1 °C at MYT1 (10 µM, binder); -0.2 °C at GPRK5 (10 µM, binder). For the same molecule, the “dTm G-5555 (2)” value on DYRK2 (10 µM, binder) was -0.1 °C; at MER (10 µM, binder) it was 0.8 °C.

Take `CNc1ncc2cc(-c3cc(F)ccc3F)c(=O)n(CCCCN)c2n1` [compound 5, 8-(4-Aminobutyl)-6-(2,5-difluorophenyl)-2-(methylamino)pyrido[2,3-d]pyrimidin-7(8H)-one]: the ΔTm at 10 µM at PHKG2 (read-out: dTm MR22 (5)) is 1.4 °C; at CLK1 (read-out: dTm MR22 (5)), 0.4 °C; on PIM1 (read-out: dTm MR22 (5)), 1.1 °C; on JNK2 (read-out: dTm MR22 (5)), 0.2 °C; at MYT1 (read-out: dTm MR22 (5)), -2.1 °C; on GPRK5 (read-out: dTm MR22 (5)), -0.6 °C. For the same molecule, the ΔTm at 10 µM is 0.2 °C on DYRK2 (read-out: dTm MR22 (5)) and -0.8 °C on MER (read-out: dTm MR22 (5)).

As to `CNc1ncc2cc(-c3cc(Br)ccc3Cl)c(=O)n(C[C@H]3OC[C@H](N)CO3)c2n1` [compound 7, 8-(((2r,5r)-5-Amino-1,3-dioxan-2-yl)methyl)-6-(5-bromo-2-chlorophenyl)-2-(methylamino)pyrido[2,3-d]pyrimidin-7(8H)-one], the ΔTm at 10 µM was 0.3 °C at PHKG2 (read-out: dTm 7); 0.4 °C at CLK1 (read-out: dTm 7); 0.6 °C on PIM1 (read-out: dTm 7); 1.1 °C at JNK2 (read-out: dTm 7); 0.1 °C on MYT1 (read-out: dTm 7); 0.2 °C on GPRK5 (read-out: dTm 7). Also, the ΔTm at 10 µM came out at 0 °C at DYRK2 (read-out: dTm 7) and 0.2 °C on MER (read-out: dTm 7).
